# Measured values reported in patent US20050239874A1, “Novel analgesic and immunomodulatory cannabinoids” (University of Connecticut, priority 1998, published 2005).
# Read-outs that look alike come from different tables or passages of the source.
# Tests used:
# [1] = biological target: T1, CB1 receptor (Rattus norvegicus, UniProt P20272); test: Radioligand binding assay ([3H]CP-55,940 displacement), rat forebrain membranes as source of CB1
# T1 construct: using rat forebrain membranes as a source of CB1; from tissue; host or cells: rat forebrain (whole brain minus cerebral cortex) membranes
# Protocol: The binding affinities of the novel compounds described in this invention for the central cannabinoid receptor was assessed using rat forebrain membranes as a source of CB1. Membranes were prepared as described by the method of Dodd et al., Brain Res. 226:107 (1981), the entire teachings of which are incorporated herein by reference. Rat whole brains minus the cerebral cortex were diced with a razor blade and homogenized in 0.32 M sucrose, pH 7.4. The resulting suspension was spun at 400×g at 4° C. The supernatant was decanted and layered over 1.2 M sucrose in TME buffer (25 mM Tris base, 5 mM MgCl2 1 mMEDTA, pH 7.4) and spun at 109,000×g. The interface containing plasma membrane protein was collected, pooled and layered over 0.8 M sucrose in TME, pH 7.4. The pellet was carefully resuspended in TME, pH 7.4 and the total protein content was assayed by the method of Markwell et al., Anal. Biochem. 87:206 (1978), the entire teachings of which are incorporated herein by reference. Protein was aliquotted, frozen under liquid nitrogen and stored at −80° C. until use.
# (§1) Approximately 30 μg of tissue was incubated in silanized 96 well microtiter plate with TME containing 0.1% essentially fatty acid free bovine serum albumin (BSA), 0.8 nM CH^3]CP-55,940 and various concentrations of the test compound in a final volume of 200 μL. Assays were incubated at 30° C. for 1 hour. The samples were filtered using Packard Filtermate 196 and Whatman GF/C Filterplates and washed with wash buffer (TME) containing 0.5% BSA. Radioactivity was detected using MicroScint 20 scintillation cocktail added directly to the dried filterplates, and the filterplates were counted using a Packard Instruments Top-Count. Nonspecific binding was assessed using 100 nM CP-55,940. Data collected from three independent experiments performed with duplicate determinations were normalized between 100% and 0% specific binding for [H^3]CP-55,940, determined using buffer and 100 nM CP-55,940. The normalized data was analyzed using a 4 parameter nonlinear logistic equation to yield IC50 values. Data from at least two independent experiments performed in duplicate were used to calculate IC50 values which were convered to Ki values using the assumptions of Cheng and Prusoff, Biochem. Pharmacol., 22:3099 (1973), the entire teachings of which are incorporated herein by reference.
# [2] = biological target: T2, CB2 receptor (Mus musculus, UniProt P47936); test: Radioligand binding assay ([3H]CP-55,940 displacement), mouse spleen as source of CB2; conditions: for selectivity for the CB2 receptor: CB2 over CB1, statement in words
# T2 construct: Mouse spleen was used a source of CB2 receptors; from tissue; host or cells: mouse spleen
# Protocol: as §1
# Mouse spleen was used a source of CB2 receptors to assess binding affinity of analogs described in this invention. The CB2 binding assay was conducted in the same manner as for CB1. Silanized centrifuge tubes were used throughout to minimize receptor loss due to adsorption.
# [3] = Ki in nM for the CB1 Receptor, rat forebrain membranes, 0.8 nM [3H]CP-55,940, Ki from IC50 by Cheng and Prusoff
# [4] = Ki for the CB2 receptor, refers to Example 2
# [5] = Ki in nM for the CB2 Receptor, mouse spleen, [3H]CP-55,940, Ki from IC50 by Cheng and Prusoff
# [6] = Ki for the CB1 receptor, refers to Example 2
# [7] = rat forebrain membranes, 0.8 nM [3H]CP-55,940, Ki from IC50 by Cheng and Prusoff, read-out: Ki in nM for the CB1 Receptor
# T2 sequence (P47936 whole entry): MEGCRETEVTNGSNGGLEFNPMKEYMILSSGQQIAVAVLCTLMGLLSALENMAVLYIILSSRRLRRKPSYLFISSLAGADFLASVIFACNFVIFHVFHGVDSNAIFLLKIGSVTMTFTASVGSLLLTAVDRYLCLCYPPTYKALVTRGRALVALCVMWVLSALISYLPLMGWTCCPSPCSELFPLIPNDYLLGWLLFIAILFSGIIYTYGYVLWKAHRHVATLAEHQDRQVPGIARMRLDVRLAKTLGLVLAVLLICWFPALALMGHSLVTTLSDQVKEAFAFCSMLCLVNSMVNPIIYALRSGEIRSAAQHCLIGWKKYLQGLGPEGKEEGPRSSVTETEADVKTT
# T1 sequence (P20272 whole entry): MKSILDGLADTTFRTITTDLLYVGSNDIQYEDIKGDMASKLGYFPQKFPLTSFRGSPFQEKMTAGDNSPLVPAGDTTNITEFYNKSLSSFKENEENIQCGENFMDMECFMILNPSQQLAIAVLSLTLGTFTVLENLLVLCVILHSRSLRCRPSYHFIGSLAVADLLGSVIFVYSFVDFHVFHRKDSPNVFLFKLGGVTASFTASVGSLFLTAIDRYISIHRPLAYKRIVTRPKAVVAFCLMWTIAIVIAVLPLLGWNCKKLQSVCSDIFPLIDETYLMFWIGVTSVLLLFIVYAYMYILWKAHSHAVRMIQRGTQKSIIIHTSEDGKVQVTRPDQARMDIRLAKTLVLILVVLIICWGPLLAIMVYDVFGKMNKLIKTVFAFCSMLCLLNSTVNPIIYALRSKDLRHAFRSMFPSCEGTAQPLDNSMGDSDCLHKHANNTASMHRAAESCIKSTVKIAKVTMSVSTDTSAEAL
compound,measurement,setting,value
CC1=CC[C@@H]2[C@@H](C1)c1c(O)cc(C3CC4CCC3(C)C4(C)C)cc1OC2(C)C (stereo partly shown) [AM731],Ki,[1]; [3],60.6 nM
same,selectivity for the CB2 receptor,[2],selective agonists
same,Ki,[2]; [4],< 10 nM
same,Ki,[2]; [5],6.1 nM
CCCCCCC1(c2cc(O)c3c(c2)OC(C)(C)[C@@H]2CC=C(C)C[C@@H]32)OCCO1 [AMG14],Ki,[1]; [6],< 1 nM
same,Ki,[1]; [3],0.2 nM
"CCCCCc1cc(O)c2c(c1)OC(C)(C)[C@@H]1CC=C(C)C[C@@H]21 [Δ^8-tetrahydrocannabinol, reference compound]",Ki,[2]; [4],14 nM
CC1=CC[C@@H]2[C@@H](C1)c1c(O)cc(C3CC4CCC3(C)C4(C)C)cc1OC2(C)C (stereo partly shown) [AM732],Ki,[1]; [3],20.1 nM
same,selectivity for the CB2 receptor,[2],selective agonists
same,Ki,[2]; [5],2 nM
CC1=CC[C@@H]2[C@@H](C1)c1c(O)cc(C34CC5CC(CC(C5)C3)C4)cc1OC2(C)C [AM411],selectivity for the CB1 receptor,"[1]; CB1 over CB2, statement in words",selective agonists
same,Ki,[1]; [7],6.9 nM
same,Ki,"[2]; mouse spleen, [3H]CP-55,940, Ki from IC50 by Cheng and Prusoff, read-out: Ki in nM for the CB2 Receptor",52 nM
CCCCCCC1(c2cc(O)c3c(c2)OC(C)(C)[C@@H]2CC=C(C)C[C@@H]32)SCCS1 [AMG3],Ki,[1]; [6],< 1 nM
same,Ki,[1]; [7],0.32 nM
same,Ki,[2]; [5],1.7 nM
